The test system of the assay is water hyacinth. Nature of the assay: Experiment 5 foliar application to water hyacinths. Type of assay: in vivo, Eichhornia crassipes Solms. More on the design: key to Killing index: 0 = no effect, 5 = death. To be noted: for Reproduction-inhibiting effect: 3 months; for Killing index: 21 days. The source says:
The detail of the assessment made in the following Experiments of the invention was as follows:
Four months after treatment, evaluation was made for inhibition of reproduction expressed in terms of symbols ranging from (-) to (+++) where (-) means no reproduction, namely complete suppression of reproduction, (±) remarkable suppression of reproduction; (+) considerable suppression of reproduction; (++) medium supprestion of reproduction; and (+++) no suppression of reproduction.
Water was placed in 20 cm.×30 cm. plastic vessels and a liquid fertilizer was added thereto. Two water hyacinths were floated in each vessel.
0.1 or 0.2% aqueous solutions of each of the compounds of the invention listed in Table 7 were sprayed by foliar application in an amount of 100 liter per 10 are. As a surfactant, 0.1% of octylphenyl polyoxyethanol was added.
The killing index (0, no effect; 5, death) after 21 days and 3 months, and the reproduction-inhibiting effect (-, no reproduction; +++, maximum reproduction) after 3 months were determined.

Where a name gives a salt, the structure may show the parent alone.

Take `CP(=O)(O)CCC(N)C(=O)O` (racemic) [DL-AMPB diammonium salt]: the Reproduction-inhibiting effect entry (0.1%) is recorded as “++” and the Reproduction-inhibiting effect entry (0.2%) is on record as “±”.
In the same order, the values of `CP(=O)(O)CCC(N)C(=O)O` (racemic) [DL-AMPB dipotassium salt] are “++” and “±”.
With `CP(=O)(O)CCC(N)C(=O)O` (racemic) [DL-AMPB disodium salt], the Reproduction-inhibiting effect result was “++” (0.1%) and “±” (0.2%).
The like results for `CP(=O)(O)CCC(N)C(=O)O` (racemic) [DL-AMPB mono-n-butylammonium salt] were, in that order, “++” and “±”.
In the case of `CP(=O)(O)CCC(N)C(=O)O` (racemic) [DL-AMPB monodiethylammonium salt], the Reproduction-inhibiting effect entry is, setting by setting: (0.1%) “++”; (0.2%) “±”.
The like results for `CP(=O)(O)CCC(N)C(=O)O` (racemic) [DL-AMPB monoisopropylammonium salt] were, in that order, “++” and “±”.
The like results for `CP(=O)(O)CCC(N)C(=O)O` (racemic) [DL-AMPB monopotassium salt] were, in that order, “++” and “±”.
In the same order, the values of `CP(=O)(O)CCC(N)C(=O)O` (racemic) [DL-AMPB, DL-2-amino-4-methylphosphinobutanoic acid] are “++” and “±”.
`CP(=O)(O)CC[C@H](N)C(=O)O` [L-AMPB diammonium salt]: the Reproduction-inhibiting effect result (0.1%) is on record as “±” and the Reproduction-inhibiting effect result (0.2%) is listed as “-”.
As for `CP(=O)(O)CC[C@H](N)C(=O)O` [L-AMPB dipotassium salt], the Reproduction-inhibiting effect entry (0.1%) was “±” and the Reproduction-inhibiting effect result (0.2%) was “-”.
Regarding `CP(=O)(O)CC[C@H](N)C(=O)O` [L-AMPB disodium salt], the Reproduction-inhibiting effect result reads like this: (0.1%) “±”; (0.2%) “-”.
For the compound `CP(=O)(O)CC[C@H](N)C(=O)O` [L-AMPB mono-n-butylammonium salt], the Reproduction-inhibiting effect entry reads like this: (0.1%) “±”; (0.2%) “-”.
The like results for `CP(=O)(O)CC[C@H](N)C(=O)O` [L-AMPB monodiethylammonium salt] were, in that order, “±” and “-”.
Turning to `CP(=O)(O)CC[C@H](N)C(=O)O` [L-AMPB monoisopropylammonium salt], the Reproduction-inhibiting effect result runs as follows: (0.1%) “±”; (0.2%) “-”.
In the case of `CP(=O)(O)CC[C@H](N)C(=O)O` [L-AMPB monopotassium salt], the Reproduction-inhibiting effect entry runs as follows: (0.1%) “±”; (0.2%) “-”.
With `CP(=O)(O)CC[C@H](N)C(=O)O` [L-AMPB, L-2-amino-4-methylphosphinobutanoic acid], the Reproduction-inhibiting effect result is recorded as “±” (0.1%) and “-” (0.2%).
On to `C[C@H](NC(=O)[C@H](C)NC(=O)[C@@H](N)CCP(C)(=O)O)C(=O)O` [SF-1293 diammonium salt], for which the Reproduction-inhibiting effect entry (0.1%) is given as “+”. Besides, for the setting “0.2%”, the Reproduction-inhibiting effect entry is “-” and the Killing index amounted to 4.5.
In the case of `C[C@H](NC(=O)[C@H](C)NC(=O)[C@@H](N)CCP(C)(=O)O)C(=O)O` [SF-1293 dipotassium salt], the Reproduction-inhibiting effect result (0.1%) is on record as “+”. Moreover, where the note is “0.2%”, the Reproduction-inhibiting effect result is given as “-” and the Killing index was 4.5.
Regarding `C[C@H](NC(=O)[C@H](C)NC(=O)[C@@H](N)CCP(C)(=O)O)C(=O)O` [SF-1293 disodium salt], the Reproduction-inhibiting effect result (0.1%) is on record as “+”. Where the note is “0.2%”, the Reproduction-inhibiting effect entry was “-” and the Killing index worked out at 4.5.
The like results for `C[C@H](NC(=O)[C@H](C)NC(=O)[C@@H](N)CCP(C)(=O)O)C(=O)O` [SF-1293 mono-n-butylammonium salt] were, in that order, “+”, “-” and 4.5.
The like results for `C[C@H](NC(=O)[C@H](C)NC(=O)[C@@H](N)CCP(C)(=O)O)C(=O)O` [SF-1293 monodiethylammonium salt] were, in that order, “+”, “-” and 4.5.
The like results for `C[C@H](NC(=O)[C@H](C)NC(=O)[C@@H](N)CCP(C)(=O)O)C(=O)O` [SF-1293 monodiisopropylammonium salt] were, in that order, “+”, “-” and 4.5.
On to `C[C@H](NC(=O)[C@H](C)NC(=O)[C@@H](N)CCP(C)(=O)O)C(=O)O` [SF-1293 monopotassium salt], for which the Reproduction-inhibiting effect entry (0.1%) is recorded as “+”. For the setting “0.2%”, the Reproduction-inhibiting effect result was “-” and the Killing index was found to be 4.5.
As for `C[C@H](NC(=O)[C@H](C)NC(=O)[C@@H](N)CCP(C)(=O)O)C(=O)O` [SF-1293, (L-2-amino-4-methylphosphinobutyryl)-L-alanyl-L-alanine], the Reproduction-inhibiting effect result (0.1%) is reported as “+”. In addition, under “0.2%”, the Reproduction-inhibiting effect entry was “-” and the Killing index is 4.5.

The record behind these values is patent publication US4226610A, “Herbicidal compounds, preparation thereof and herbicides containing the same” (Meiji Selka Kaisha, Ltd., priority 1978, dated 1980).
